Experimental data published in ChEMBL document CHEMBL1154563, “Flavonol-cinnamate cycloadducts and diamide derivatives from Aglaia laxiflora” (J Nat Prod, 2000).
≈ marks a conversion by molar mass, not a printed value. Calls of active or inactive are those of the source. The calls are words filed in the database; no cut-off is given here.

Key:
MOLT-4 = test: Cytotoxicity against human MOLT4 cells; type: functional, cell-based
P388 = test: Cytotoxicity against mouse P388 cells; type: functional, cell-based
[1] = Cytotoxicity against mouse LL/2 cells; type: functional, cell-based, Lewis lung carcinoma
WEHI-164 = test: Cytotoxicity against mouse WEHI164 cells; type: functional, cell-based
Jurkat = test: Cytotoxicity against human Jurkat cells; type: functional, cell-based

**Q.** Which Activity (MOLT-4) does the source give for `CC[C@@](C)(O)C(=O)N[C@@H]1CCCN1C(=O)[C@H]1[C@H](c2ccccc2)[C@]2(c3ccc(OC)cc3)Oc3cc(OC)cc(OC)c3[C@@]1(O)[C@H]2OC(C)=O` here?
**A.** The Activity was “inactive”.

**Q.** And the Activity (P388)?
**A.** Its Activity is “inactive”.

**Q.** Which IC50 ([1]; Mus musculus, Lewis lung carcinoma, read-out: IC50) does the source give for `COc1ccc([C@@]23Oc4cc(OC)cc(OC)c4[C@]2(O)[C@H](O)C[C@H]3c2ccccc2)cc1` [ROCAGLAOL] here?
**A.** The IC50 was 0.034 µg/mL (≈ 0.0783 µM).

**Q.** And the IC50 (P388; Mus musculus, P388, read-out: IC50)?
**A.** Its IC50 is less than 0.01 µg/mL.

**Q.** What about the IC50 (WEHI-164) of the same compound?
**A.** The IC50 was 0.023 µg/mL (≈ 0.0529 µM).

**Q.** For `CC[C@@](C)(O)C(=O)N[C@@H]1CCCN1C(=O)[C@@H]1[C@@H](c2ccccc2)[C@]2(c3ccc(OC)cc3)Oc3cc(OC)cc(OC)c3[C@@]1(O)[C@H]2OC(C)=O`, which Activity (MOLT-4) is on record?
**A.** Its Activity is “inactive”.

**Q.** And the Activity (P388)?
**A.** The Activity was “inactive”.

**Q.** Which Activity (MOLT-4) does the source give for `CC[C@@](C)(O)C(=O)N[C@@H]1CCCN1C(=O)[C@@H]1[C@@H](c2ccccc2)[C@@]2(O)c3c(OC)cc(OC)cc3O[C@]1(c1ccc(OC)cc1)[C@H]2O` here?
**A.** Its Activity is “inactive”.

**Q.** What about the Activity (P388) of the same compound?
**A.** The Activity was “inactive”.

**Q.** Which results are given for `CC[C@@](C)(O)C(=O)N[C@@H]1CCCN1C(=O)[C@@H]1[C@@H](c2ccccc2)[C@@]2(O)c3c(OC)cc(OC)cc3O[C@]1(c1ccc(OC)cc1)[C@H]2OC(C)=O`?
**A.** Activity (MOLT-4): inactive; Activity (P388): inactive

**Q.** What does the source list for `COc1cc(OC)c2c(c1)O[C@@]1(c3ccc(OC)c(O[C@@H]4O[C@H](C)[C@@H](O)[C@H](OC)[C@@H]4OC(C)=O)c3)[C@H](c3ccccc3)C[C@@H](O)[C@@]21O`?
**A.** IC50 (Jurkat): 0.0022 µg/mL (≈ 0.00337 µM); IC50 ([1]; lewis lung carcinoma): 0.0042 µg/mL (≈ 0.00643 µM); IC50 (P388; p388): 0.036 µg/mL (≈ 0.0552 µM)
